Data taken from ChEMBL document CHEMBL2311352, “Discovery of 4-phenyl-2-phenylaminopyridine based TNIK inhibitors” (Bioorg Med Chem Lett, 2013).
Values after ≈ are worked out from the molar mass of the structure shown. One block for each compound: values may come before it.

Tests used:
[1] = target: Voltage-gated inwardly rectifying potassium channel KCNH2 (Homo sapiens, UniProt Q12809); test: Inhibition of human ERG by patch clamp assay
[2] = target: T1, TRAF2 and NCK-interacting protein kinase (Homo sapiens, UniProt Q9UKE5); test: Inhibition of TNIK (unknown origin) by ADP glo luminescent assay
Target sequence in this assay (Q9UKE5 whole entry): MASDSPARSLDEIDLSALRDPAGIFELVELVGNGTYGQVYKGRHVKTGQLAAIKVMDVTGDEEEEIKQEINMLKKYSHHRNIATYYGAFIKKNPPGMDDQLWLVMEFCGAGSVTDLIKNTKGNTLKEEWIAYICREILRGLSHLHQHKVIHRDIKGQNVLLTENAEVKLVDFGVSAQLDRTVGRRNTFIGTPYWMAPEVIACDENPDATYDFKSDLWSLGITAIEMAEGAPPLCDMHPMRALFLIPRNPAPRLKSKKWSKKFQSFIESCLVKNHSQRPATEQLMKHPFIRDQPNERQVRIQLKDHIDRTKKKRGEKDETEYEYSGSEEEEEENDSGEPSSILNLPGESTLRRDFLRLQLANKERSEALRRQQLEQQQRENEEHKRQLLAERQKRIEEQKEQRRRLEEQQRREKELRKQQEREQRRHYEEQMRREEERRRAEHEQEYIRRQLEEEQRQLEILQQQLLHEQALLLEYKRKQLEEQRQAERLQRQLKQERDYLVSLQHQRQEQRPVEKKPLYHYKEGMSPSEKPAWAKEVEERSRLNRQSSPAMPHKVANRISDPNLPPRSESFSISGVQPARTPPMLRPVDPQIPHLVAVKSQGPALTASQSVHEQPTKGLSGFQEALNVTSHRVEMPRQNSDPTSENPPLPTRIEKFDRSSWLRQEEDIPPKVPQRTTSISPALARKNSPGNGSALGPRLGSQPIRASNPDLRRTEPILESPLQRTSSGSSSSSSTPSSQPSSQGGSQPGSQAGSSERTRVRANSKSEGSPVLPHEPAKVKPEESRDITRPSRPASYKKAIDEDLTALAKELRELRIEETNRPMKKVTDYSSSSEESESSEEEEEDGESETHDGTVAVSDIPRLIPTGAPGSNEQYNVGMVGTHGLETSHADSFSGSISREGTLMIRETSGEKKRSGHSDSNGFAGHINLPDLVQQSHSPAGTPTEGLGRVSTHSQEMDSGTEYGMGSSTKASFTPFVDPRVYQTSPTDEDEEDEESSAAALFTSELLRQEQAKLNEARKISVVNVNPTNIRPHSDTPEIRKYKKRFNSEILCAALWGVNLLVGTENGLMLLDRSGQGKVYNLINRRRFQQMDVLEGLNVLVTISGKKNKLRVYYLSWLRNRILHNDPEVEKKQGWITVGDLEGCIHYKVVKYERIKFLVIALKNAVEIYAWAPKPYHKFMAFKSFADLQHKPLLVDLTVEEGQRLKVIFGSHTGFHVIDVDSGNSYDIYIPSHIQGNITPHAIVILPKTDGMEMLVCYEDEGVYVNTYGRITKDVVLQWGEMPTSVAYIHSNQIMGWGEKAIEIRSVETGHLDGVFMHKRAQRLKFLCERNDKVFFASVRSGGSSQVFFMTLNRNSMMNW

[3] = system: HCT-116; test: Cytotoxicity against wnt-activated human HCT116 cells assessed as cell viability; assay type: functional, cell-based
[4] = system: DLD-1; test: Cytotoxicity against wnt-activated human DLD1 cells assessed as cell viability; assay type: functional, cell-based
[5] = system: HEK293; test: Cytotoxicity against wnt-inactivated human HEK293 cells assessed as cell viability; assay type: functional, cell-based
[6] = system: HeLa; test: Cytotoxicity against wnt-inactivated human HeLa cells assessed as cell viability; assay type: functional, cell-based
[7] = Inhibition of CBP binding to […] in human SW480 cells by immunoblot analysis; assay type: cell-based
[8] = target: T1, TRAF2 and NCK-interacting protein kinase; test: Ratio of IC50 for TNIK-mediated TCF4/[…] transcription in human HCT116 cells to IC50 for TNIK (unknown origin); assay type: cell-based; conditions: HCT-116
Target sequence in this assay (Q9UKE5 whole entry, looked up): as the sequence (Q9UKE5 whole entry) above

[9] = target: T1, TRAF2 and NCK-interacting protein kinase; test: Inhibition of TNIK-mediated TCF4/[…] transcription in human HCT116 cells by beta-lactamase reporter gene assay; assay type: cell-based, HCT-116
Target sequence in this assay (Q9UKE5 whole entry): as above

[10] = target: Serine/threonine-protein kinase Chk1 (Homo sapiens) (UniProt O14757); test: Inhibition of CHK1 (unknown origin) at 1 uM
[11] = target: CDK6/cyclin D1 (Homo sapiens) (UniProt P24385+Q00534); test: Inhibition of CDK6/Cyclin D1 (unknown origin) at 1 uM; assay type: protein-complex assay
[12] = target: Macrophage colony-stimulating factor 1 receptor (Homo sapiens) (UniProt P07333); test: Inhibition of FMS (unknown origin) at 1 uM
[13] = target: Inhibitor of nuclear factor kappa-B kinase subunit epsilon (Homo sapiens) (UniProt Q14164); test: Inhibition of IKKepsilon (unknown origin) at 1 uM
[14] = target: Receptor-type tyrosine-protein kinase FLT3 (Homo sapiens) (UniProt P36888); test: Inhibition of FLT3 (unknown origin) at 1 uM
[15] = Apparent permeability across basolateral to apical side in human Caco2 cells; assay type: ADME, cell-based; conditions: Caco-2
[16] = Apparent permeability across apical to basolateral side in human Caco2 cells; assay type: ADME, cell-based; conditions: Caco-2
[17] = Solubility of the compound in phosphate buffer at pH 7.4; assay type: physicochemical
[18] = target: Mitogen-activated protein kinase kinase kinase kinase 4 (Homo sapiens) (UniProt O95819); conditions: 1 uM
[19] = target: T1, TRAF2 and NCK-interacting protein kinase; conditions: 1 uM
Target sequence in this assay (Q9UKE5 whole entry, looked up): as the sequence (Q9UKE5 whole entry) above

[20] = system: Caco-2; test: Ratio of apparent permeability across basolateral to apical side over apical to basolateral side in human Caco2 cells; assay type: ADME, cell-based
[21] = target: T1, TRAF2 and NCK-interacting protein kinase; test: Competitive binding affinity to TNIK (unknown origin) in presence of ATP
Target sequence in this assay (Q9UKE5 whole entry): as above

Sequence of Voltage-gated inwardly rectifying potassium channel KCNH2 (Q12809 whole entry): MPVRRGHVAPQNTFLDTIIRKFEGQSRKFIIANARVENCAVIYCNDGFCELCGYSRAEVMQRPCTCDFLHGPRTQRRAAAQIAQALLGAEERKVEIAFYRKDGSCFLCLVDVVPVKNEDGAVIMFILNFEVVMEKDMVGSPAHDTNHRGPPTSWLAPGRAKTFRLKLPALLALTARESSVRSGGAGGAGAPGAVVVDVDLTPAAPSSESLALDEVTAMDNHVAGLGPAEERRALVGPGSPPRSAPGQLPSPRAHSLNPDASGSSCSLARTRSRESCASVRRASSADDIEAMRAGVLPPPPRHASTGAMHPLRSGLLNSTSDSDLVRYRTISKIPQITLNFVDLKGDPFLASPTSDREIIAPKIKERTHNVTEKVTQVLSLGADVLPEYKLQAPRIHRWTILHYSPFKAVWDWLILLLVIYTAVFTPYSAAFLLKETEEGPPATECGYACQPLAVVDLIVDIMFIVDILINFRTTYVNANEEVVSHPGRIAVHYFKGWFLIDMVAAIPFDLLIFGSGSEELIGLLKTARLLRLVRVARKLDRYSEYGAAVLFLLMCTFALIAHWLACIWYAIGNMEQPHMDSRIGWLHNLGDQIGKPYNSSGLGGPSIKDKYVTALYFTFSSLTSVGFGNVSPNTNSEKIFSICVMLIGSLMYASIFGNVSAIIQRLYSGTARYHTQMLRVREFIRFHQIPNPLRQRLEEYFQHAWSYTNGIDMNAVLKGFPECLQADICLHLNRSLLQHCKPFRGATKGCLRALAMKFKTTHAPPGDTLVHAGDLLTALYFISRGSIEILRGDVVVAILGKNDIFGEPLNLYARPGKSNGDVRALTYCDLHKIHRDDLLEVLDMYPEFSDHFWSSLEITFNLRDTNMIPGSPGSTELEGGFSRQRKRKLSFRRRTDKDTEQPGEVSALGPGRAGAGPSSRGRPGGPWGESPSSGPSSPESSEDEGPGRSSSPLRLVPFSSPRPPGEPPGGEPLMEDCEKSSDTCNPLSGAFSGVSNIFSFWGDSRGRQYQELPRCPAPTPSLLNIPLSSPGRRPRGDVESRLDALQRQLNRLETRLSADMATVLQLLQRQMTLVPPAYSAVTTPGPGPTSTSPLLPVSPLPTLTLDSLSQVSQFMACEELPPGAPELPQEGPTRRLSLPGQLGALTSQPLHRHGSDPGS
Sequence of Mitogen-activated protein kinase kinase kinase kinase 4 (Homo sapiens) (O95819 2-1239 limits assumed): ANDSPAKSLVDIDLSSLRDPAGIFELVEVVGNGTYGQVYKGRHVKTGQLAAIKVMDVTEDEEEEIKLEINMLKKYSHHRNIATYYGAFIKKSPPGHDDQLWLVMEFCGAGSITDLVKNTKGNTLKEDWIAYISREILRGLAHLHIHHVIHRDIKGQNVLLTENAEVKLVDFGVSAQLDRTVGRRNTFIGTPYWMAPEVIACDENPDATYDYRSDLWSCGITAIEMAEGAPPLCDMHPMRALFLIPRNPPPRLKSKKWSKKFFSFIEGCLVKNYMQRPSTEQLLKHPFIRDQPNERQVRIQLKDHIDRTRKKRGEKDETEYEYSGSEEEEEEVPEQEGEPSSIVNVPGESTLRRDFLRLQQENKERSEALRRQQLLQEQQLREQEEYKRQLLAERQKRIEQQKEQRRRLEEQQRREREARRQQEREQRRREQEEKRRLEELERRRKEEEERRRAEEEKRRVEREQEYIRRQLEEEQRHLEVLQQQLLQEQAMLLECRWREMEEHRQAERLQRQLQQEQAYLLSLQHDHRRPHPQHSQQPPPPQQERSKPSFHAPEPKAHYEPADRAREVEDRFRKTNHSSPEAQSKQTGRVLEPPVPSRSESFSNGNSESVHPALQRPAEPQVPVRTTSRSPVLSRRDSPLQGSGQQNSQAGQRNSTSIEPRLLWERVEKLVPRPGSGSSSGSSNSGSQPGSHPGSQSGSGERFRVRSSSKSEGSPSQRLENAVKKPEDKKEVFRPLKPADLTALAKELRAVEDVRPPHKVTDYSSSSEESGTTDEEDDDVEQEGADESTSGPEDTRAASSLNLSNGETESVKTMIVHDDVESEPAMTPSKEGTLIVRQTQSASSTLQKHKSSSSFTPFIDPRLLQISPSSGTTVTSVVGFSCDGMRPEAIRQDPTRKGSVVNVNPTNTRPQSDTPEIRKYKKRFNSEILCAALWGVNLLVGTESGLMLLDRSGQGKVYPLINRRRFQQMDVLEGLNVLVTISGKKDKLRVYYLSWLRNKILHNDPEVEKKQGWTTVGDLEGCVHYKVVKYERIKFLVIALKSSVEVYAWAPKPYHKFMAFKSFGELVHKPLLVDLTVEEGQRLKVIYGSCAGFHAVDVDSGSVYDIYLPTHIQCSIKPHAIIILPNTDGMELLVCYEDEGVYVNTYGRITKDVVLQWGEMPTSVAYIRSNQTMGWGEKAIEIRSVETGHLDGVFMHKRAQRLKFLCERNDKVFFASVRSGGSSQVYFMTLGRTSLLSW
Sequence of Receptor-type tyrosine-protein kinase FLT3 (Homo sapiens) (P36888 whole entry): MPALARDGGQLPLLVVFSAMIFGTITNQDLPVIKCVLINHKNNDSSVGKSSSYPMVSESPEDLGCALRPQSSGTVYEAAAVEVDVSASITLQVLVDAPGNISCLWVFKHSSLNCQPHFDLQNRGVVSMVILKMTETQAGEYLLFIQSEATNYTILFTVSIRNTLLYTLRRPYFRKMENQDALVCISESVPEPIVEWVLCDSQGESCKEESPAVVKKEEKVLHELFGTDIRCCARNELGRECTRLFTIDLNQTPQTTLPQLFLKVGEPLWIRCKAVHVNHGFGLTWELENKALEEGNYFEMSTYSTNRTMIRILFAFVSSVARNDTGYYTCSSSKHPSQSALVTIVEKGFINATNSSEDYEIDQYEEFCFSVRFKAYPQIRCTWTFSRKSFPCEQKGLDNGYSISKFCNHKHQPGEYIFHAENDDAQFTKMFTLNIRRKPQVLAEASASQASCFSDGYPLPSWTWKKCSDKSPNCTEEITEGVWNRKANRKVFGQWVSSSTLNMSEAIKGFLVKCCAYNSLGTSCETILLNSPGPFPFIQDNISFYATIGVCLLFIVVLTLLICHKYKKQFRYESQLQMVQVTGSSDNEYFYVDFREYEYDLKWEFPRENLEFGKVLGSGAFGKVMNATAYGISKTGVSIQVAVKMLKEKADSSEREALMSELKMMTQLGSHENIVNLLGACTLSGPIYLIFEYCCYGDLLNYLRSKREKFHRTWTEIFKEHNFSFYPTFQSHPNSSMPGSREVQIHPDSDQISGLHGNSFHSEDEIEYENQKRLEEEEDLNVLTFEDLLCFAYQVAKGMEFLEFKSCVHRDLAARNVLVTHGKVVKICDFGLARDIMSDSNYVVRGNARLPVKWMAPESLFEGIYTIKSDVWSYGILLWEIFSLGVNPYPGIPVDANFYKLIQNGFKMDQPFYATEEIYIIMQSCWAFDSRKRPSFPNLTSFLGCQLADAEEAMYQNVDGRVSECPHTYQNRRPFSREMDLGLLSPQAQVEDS

Compound: O=C1[C@H](Cc2ccc(O)cc2)N2C(=O)CCN(C(=O)NCc3ccccc3)[C@H]2CN1Cc1cccc2ccccc12
- IC50 [7]: 1300 nM

Compound: COc1cc(C#N)cc(-c2ccnc(Nc3ccc(N4CCOCC4)c(OC)c3)c2)c1
- IC50 [2]: 63 nM

Compound: COc1ccc(C(F)(F)F)cc1-c1ccnc(Nc2ccc(N3CCOCC3)c(OC)c2)c1
- IC50 [2]: 275 nM

Compound: COc1ccc(F)cc1-c1ccnc(Nc2ccc(N3CCOCC3)c(OC)c2)c1
- IC50 [2]: 118 nM

Compound: COc1cc(Nc2cc(-c3cccc(CC#N)c3)ccn2)ccc1N1CCN(C)CC1
- Ratio [20]: 0.93
- Papp B→A [15]: 19.1 ×10⁻⁶ cm/s
- Papp A→B [16]: 20.5 ×10⁻⁶ cm/s
- solubility [17]: 94 µM (≈ 38.9 µg/mL)
- Kd [21]: 220 nM
- IC50 [2]: 290 nM

Compound: COc1cc(Nc2cc(-c3ccc(C#N)cc3)ccn2)ccc1N1CCOCC1
- IC50 [2]: > 1000 nM

Compound: COc1ccc(C#N)cc1-c1ccnc(Nc2ccc(N3CCOCC3)c(OC)c2)c1
- IC50 [3]: 2300 nM
- IC50 [4]: 5800 nM
- IC50 [5]: 105 nM
- IC50 [6]: 6800 nM

Now from value to compound, other results behind:

- IC50 [2]: 41 nM
Compound: COc1ccc(Cl)cc1-c1ccnc(Nc2ccc(N3CCOCC3)c(OC)c2)c1
- IC50 [1]: 20000 nM

- IC50 [2]: 20 nM
Compound: COc1ccc(Cl)cc1-c1ccnc(Nc2ccc(CCN3CCOCC3)cc2)c1
- IC50 [3]: 1700 nM
- IC50 [4]: 1100 nM
- IC50 [5]: 59 nM
- IC50 [6]: 3700 nM

- IC50 [2]: 55 nM
Compound: COc1cc(Nc2cc(-c3cccc(C#N)c3)ccn2)ccc1N1CCOCC1
- IC50 [1]: 7700 nM

- Ratio IC50 [8]: 2000
- IC50 [9]: 7900 nM
- IC50 [2]: 4 nM
Compound: COc1ccc(Cl)cc1-c1ccnc(Nc2ccc(N3CCN(C)CC3)c(OC)c2)c1

- Ratio IC50 [8]: 280
- IC50 [9]: 3100 nM
- IC50 [2]: 11 nM
Compound: COc1ccc(C#N)cc1-c1ccnc(Nc2ccc(N3CCC(N(C)C)CC3)c(F)c2)c1
- IC50 [3]: 260 nM
- IC50 [4]: 330 nM
- IC50 [5]: 43 nM
- IC50 [6]: 1200 nM

- inhibition [10]: > 50%
- inhibition [11]: > 50%
- inhibition [12]: 50%
- inhibition [13]: > 80%
- inhibition [14]: 50%
- Papp B→A [15]: 14.2 ×10⁻⁶ cm/s
- Papp A→B [16]: 16 ×10⁻⁶ cm/s
- solubility [17]: 78 µM (≈ 31.2 µg/mL)
- IC50 [9]: 27000 nM
- IC50 [2]: 6 nM
- inhibition [18]: > 95%
- inhibition [19]: > 95%
Compound: COc1cc(Nc2cc(-c3cccc(C#N)c3)ccn2)ccc1N1CCN(C)CC1

- Ratio IC50 [8]: > 6000
- IC50 [9]: > 30000 nM
- IC50 [2]: 5 nM
Compound: COc1ccc(C#N)cc1-c1ccnc(Nc2ccc(N3CCN(C)CC3)cc2)c1

- Ratio IC50 [8]: 2400
- IC50 [9]: 26000 nM
- IC50 [2]: 11 nM
Compound: COc1ccc(C#N)cc1-c1ccnc(Nc2ccc(N3CCOCC3)cc2)c1

- IC50 [2]: 3 nM
Compound: COc1ccc(C#N)cc1-c1ccnc(Nc2ccc(N3CCN(C)CC3)c(OC)c2)c1
